Tests used:
[1] = molecular target: T1, Serine/threonine-protein kinase Sgk2 (Homo sapiens) (UniProt Q9HBY8); test: Inhibition of human full length SGK2 expressed in baculovirus assessed as substrate phosphorylation using fluorescence-labelled peptides as substrate at 0.2 uM after 90 mins by microfluidic peptide phosphorylation assay
T1 sequence (whole entry): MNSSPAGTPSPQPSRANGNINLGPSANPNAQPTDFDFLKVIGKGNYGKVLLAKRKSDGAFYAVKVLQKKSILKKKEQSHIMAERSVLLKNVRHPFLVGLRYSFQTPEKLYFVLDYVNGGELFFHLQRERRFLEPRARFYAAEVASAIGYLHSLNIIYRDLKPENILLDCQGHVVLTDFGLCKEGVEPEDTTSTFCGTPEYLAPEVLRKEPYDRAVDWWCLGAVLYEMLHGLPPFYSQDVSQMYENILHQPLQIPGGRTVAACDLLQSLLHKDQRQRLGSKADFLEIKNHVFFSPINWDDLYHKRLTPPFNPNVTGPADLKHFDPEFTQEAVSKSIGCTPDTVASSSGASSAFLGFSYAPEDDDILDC

[2] = molecular target: Receptor-type tyrosine-protein kinase FLT3 (Homo sapiens) (UniProt P36888); test: Inhibition of human FLT3 catalytic domain expressed in baculovirus assessed as substrate phosphorylation using fluorescence-labelled peptides as substrate at 0.1 uM after 90 mins by microfluidic peptide phosphorylation assay
Sequence of Receptor-type tyrosine-protein kinase FLT3 (Homo sapiens) (P36888 whole entry, the tested form may be a part): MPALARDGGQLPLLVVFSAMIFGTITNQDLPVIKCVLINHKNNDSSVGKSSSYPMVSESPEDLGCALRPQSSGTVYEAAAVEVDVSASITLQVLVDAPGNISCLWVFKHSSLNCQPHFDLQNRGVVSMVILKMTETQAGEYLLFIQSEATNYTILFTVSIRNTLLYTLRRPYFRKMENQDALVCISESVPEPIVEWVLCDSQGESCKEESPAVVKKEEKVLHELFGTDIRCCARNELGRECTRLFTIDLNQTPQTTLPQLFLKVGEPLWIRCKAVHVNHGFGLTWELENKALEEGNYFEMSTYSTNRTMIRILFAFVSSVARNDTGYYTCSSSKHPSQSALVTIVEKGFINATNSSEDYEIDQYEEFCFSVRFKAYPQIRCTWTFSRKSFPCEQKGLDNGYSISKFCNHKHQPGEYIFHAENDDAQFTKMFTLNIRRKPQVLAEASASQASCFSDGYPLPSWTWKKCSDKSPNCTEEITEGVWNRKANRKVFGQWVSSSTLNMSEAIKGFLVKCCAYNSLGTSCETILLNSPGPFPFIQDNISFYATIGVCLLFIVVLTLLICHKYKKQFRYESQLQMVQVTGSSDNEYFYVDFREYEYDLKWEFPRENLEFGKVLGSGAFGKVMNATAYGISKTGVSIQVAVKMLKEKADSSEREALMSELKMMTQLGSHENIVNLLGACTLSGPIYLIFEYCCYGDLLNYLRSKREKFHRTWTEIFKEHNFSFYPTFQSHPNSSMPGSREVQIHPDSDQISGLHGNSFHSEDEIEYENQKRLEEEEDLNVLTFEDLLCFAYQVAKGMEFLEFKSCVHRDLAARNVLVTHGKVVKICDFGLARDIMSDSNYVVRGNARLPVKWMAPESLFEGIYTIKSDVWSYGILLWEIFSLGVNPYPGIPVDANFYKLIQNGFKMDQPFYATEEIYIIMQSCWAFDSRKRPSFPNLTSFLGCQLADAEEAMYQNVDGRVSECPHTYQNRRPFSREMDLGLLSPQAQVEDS

[3] = molecular target: T2, Protein kinase C epsilon type (Homo sapiens) (UniProt Q02156); conditions: 0.1 uM
T2 sequence (whole entry): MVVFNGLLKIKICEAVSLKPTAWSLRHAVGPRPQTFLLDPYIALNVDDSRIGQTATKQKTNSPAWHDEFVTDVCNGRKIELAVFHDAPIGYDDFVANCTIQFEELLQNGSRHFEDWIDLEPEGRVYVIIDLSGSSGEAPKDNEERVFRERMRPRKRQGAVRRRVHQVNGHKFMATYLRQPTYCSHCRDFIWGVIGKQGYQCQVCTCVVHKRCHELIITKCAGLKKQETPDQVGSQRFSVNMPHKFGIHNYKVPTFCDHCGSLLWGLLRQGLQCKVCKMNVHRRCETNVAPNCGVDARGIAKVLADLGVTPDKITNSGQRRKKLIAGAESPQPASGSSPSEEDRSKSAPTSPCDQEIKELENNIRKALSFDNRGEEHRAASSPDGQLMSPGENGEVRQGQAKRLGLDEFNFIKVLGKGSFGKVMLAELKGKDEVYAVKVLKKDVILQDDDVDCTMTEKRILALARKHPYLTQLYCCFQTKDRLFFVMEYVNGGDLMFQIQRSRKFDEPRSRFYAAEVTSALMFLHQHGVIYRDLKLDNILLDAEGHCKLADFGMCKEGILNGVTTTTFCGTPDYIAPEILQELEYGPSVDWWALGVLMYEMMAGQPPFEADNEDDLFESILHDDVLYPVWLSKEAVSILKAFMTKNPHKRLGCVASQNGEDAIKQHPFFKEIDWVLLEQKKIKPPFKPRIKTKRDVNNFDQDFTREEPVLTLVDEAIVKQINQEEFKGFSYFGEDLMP
Description: Inhibition of human truncated PKC epsilon expressed in baculovirus assessed as substrate phosphorylation using fluorescence-labelled peptides as substrate at 0.1 uM after 90 mins by microfluidic peptide phosphorylation assay

[4] = molecular target: Mitogen-activated protein kinase 14 (Homo sapiens) (UniProt Q16539); test: Inhibition of human truncated p38 alpha expressed in Escherichia coli cell assessed as substrate phosphorylation using fluorescence-labelled peptides as substrate at 70 uM after 90 mins by microfluidic peptide phosphorylation assay
Sequence of Mitogen-activated protein kinase 14 (Homo sapiens) (Q16539 whole entry, the tested form may be a part): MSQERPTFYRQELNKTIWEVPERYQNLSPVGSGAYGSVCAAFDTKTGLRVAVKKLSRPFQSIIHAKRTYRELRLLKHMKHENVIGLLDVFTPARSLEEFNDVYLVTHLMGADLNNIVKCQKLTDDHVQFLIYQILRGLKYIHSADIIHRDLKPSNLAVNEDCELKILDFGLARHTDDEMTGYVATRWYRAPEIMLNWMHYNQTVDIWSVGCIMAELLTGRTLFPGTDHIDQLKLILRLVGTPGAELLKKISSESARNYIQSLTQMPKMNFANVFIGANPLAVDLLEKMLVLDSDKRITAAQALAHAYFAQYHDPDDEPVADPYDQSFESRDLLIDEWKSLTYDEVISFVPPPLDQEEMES

[5] = molecular target: T3, Serine/threonine-protein kinase BRSK1 (Homo sapiens) (UniProt Q8TDC3); test: Inhibition of human full length BRSK1 expressed in baculovirus assessed as substrate phosphorylation using fluorescence-labelled peptides as substrate at 70 uM after 90 mins by microfluidic peptide phosphorylation assay
T3 sequence (whole entry): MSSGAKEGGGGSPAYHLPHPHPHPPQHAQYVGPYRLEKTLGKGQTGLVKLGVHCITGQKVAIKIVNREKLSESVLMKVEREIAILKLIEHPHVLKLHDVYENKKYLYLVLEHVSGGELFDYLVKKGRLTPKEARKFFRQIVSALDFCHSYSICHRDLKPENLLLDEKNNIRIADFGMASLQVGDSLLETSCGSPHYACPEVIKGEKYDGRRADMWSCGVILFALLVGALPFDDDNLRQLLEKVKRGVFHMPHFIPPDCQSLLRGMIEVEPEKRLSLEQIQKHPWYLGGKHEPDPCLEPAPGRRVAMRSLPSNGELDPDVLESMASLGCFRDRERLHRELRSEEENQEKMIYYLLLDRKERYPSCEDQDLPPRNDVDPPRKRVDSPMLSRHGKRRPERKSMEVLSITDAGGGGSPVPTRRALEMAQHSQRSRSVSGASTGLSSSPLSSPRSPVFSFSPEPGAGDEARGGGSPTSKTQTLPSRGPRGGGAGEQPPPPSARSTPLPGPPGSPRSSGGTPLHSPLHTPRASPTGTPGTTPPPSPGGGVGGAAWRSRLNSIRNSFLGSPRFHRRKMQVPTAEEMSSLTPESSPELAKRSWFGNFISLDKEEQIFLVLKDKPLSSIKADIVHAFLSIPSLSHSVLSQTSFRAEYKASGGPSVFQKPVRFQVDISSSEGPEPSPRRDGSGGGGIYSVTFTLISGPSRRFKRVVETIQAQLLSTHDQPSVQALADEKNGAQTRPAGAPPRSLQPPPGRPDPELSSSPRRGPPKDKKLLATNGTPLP

[6] = molecular target: Serine/threonine-protein kinase MARK2 (Homo sapiens) (UniProt Q7KZI7); test: Inhibition of human full length MARK2 expressed in baculovirus assessed as substrate phosphorylation using fluorescence-labelled peptides as substrate at 95 uM after 90 mins by microfluidic peptide phosphorylation assay
Sequence of Serine/threonine-protein kinase MARK2 (Homo sapiens) (Q7KZI7 whole entry): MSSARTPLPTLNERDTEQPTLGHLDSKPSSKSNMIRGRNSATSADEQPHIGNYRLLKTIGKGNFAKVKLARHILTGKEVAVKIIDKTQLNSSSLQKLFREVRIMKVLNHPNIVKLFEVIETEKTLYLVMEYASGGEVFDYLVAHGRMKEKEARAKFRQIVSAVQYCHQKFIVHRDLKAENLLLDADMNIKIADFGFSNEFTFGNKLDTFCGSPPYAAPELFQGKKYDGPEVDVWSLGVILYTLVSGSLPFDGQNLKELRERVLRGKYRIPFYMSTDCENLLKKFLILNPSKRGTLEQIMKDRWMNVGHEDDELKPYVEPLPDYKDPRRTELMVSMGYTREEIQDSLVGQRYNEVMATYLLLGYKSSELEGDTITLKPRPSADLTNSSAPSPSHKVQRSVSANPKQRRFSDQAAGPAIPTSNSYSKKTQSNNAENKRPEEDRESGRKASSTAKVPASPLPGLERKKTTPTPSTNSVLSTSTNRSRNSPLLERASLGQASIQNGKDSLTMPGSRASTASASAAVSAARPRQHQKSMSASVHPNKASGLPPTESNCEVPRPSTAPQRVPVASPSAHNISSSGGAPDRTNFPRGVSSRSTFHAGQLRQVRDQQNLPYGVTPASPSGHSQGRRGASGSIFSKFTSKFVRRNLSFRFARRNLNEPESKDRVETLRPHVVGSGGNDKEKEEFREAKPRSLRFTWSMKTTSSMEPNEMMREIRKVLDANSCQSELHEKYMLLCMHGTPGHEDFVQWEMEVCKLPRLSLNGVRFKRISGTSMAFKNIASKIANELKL

[7] = molecular target: Ribosomal protein S6 kinase alpha-4 (Homo sapiens) (UniProt O75676); test: Inhibition of human full length MSK2 expressed in baculovirus assessed as substrate phosphorylation using fluorescence-labelled peptides as substrate at 95 uM after 90 mins by microfluidic peptide phosphorylation assay
Sequence of Ribosomal protein S6 kinase alpha-4 (Homo sapiens) (O75676 whole entry, looked up): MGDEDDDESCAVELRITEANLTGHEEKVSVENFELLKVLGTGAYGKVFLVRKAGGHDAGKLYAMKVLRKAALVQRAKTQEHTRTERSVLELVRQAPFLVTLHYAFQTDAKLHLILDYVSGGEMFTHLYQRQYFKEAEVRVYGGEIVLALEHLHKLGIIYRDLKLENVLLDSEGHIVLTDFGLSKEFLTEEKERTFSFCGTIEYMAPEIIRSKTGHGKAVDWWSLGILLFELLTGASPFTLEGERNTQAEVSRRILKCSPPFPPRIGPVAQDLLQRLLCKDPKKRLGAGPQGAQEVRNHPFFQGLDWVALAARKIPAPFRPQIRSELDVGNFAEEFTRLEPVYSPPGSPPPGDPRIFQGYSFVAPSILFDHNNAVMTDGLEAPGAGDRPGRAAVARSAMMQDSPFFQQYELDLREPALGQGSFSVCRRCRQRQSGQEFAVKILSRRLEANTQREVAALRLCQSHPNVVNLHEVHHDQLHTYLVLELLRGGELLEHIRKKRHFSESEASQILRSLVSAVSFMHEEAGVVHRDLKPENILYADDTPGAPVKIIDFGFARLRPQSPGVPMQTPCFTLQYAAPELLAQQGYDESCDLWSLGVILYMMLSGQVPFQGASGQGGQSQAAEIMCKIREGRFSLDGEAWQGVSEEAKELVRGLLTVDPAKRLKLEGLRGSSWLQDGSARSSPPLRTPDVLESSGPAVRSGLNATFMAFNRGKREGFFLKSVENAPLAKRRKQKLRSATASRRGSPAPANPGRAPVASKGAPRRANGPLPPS

[8] = molecular target: T4, Aurora kinase A (Homo sapiens) (UniProt O14965); test: Inhibition of human full length AurA expressed in baculovirus assessed as substrate phosphorylation using fluorescence-labelled peptides as substrate at 1000 uM after 90 mins by microfluidic peptide phosphorylation assay
T4 sequence (whole entry): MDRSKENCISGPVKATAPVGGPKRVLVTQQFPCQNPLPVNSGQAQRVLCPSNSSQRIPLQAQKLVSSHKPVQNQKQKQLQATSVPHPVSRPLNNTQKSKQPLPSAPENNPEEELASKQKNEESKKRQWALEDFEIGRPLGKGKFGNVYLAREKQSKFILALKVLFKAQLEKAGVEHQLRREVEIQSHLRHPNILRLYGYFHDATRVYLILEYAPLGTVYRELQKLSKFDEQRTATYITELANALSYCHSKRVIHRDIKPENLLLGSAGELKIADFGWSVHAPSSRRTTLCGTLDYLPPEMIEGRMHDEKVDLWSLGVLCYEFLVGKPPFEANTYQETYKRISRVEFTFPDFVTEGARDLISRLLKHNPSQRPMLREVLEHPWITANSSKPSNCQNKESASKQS

With `Clc1ccc(C2(c3ccc(-c4ncnc5[nH]cnc45)cc3)CCNCC2)cc1` the inhibition [1] was 23.5%.

`C[C@H](CN(C)C)Oc1nc(Nc2cc3cccc(Cl)c3cn2)cnc1C#N` gave an inhibition [2] of 7% and an inhibition [3] of 0%.

In the case of `CNCc1ccc(-c2ncnc3[nH]cnc23)cc1`, the inhibition [4] is reported as 0% and the inhibition [5] is reported as 29.5%.

`NCCc1ccc(-c2ncnc3[nH]cnc23)cc1` showed an inhibition [6] of 67% and an inhibition [7] of 54%.

Compound `c1cnc2[nH]ccc2c1` has an inhibition [8] of 88%.
